Results on 2 molecules are retold here after patent US20120157477A1, “REVERSAL OF L-DOPA-INDUCED DYSKINESIA BY NEURONAL NICOTINIC RECEPTOR LIGANDS” (TARGACEPT, INC., priority 2009, published 2012).

For one series, the system named is rodents. Description: Toxicological studies, rodents. It counts as in vivo.
The subject of a further series is rats. Description: Safety studies in rats. The class given is in vivo, rat.
The test system of another series is Parkinsonian rats. Description: Limb use asymmetry (cylinder) test of motor function in Parkinsonian rats. The class given is in vivo, rat. As for the experimental part: Because drugs that reduce AIMs may worsen Parkinsonism, the effect of Compound A (PD1) was also tested on motor function in Parkinsonian rats (see FIG. 3) using the limb use asymmetry or cylinder test. The cylinder test was used as an index of behavioral function after unilateral nigrostriatal damage, with explorative activity analyzed as previously described. Animals were placed in a transparent cylinder (20 cm diameter×30 cm height) or in a transparent cage and evaluated over a 5 min period. A mirror was placed behind the cylinder/cage to allow the raters to view forelimb movements when the rat was turned away from the rater. Wall exploration was expressed in terms of the percentage of use of the impaired forelimb (contralateral to the lesion) compared to the total number of limb use movements. Two raters, one blinded to the treatment status of the rats, performed the ratings. Correlation analyses yielded a high inter-rater reliability (R=0.99). […] The rat is placed in a transparent cylinder, which results in vertical exploration and the percentage of contact of the unimpaired and impaired forelimb against the cylinder evaluated (Cenci, M. A. and M. Lundblad, “Post-Versus Presynaptic Plasticity In L-Dopa-lnduced Dyskinesia,”. J Neurochem, 99: 381-392 (2006); Tillerson, J. L. et al., “Forced Limb-Use Effects On The Behavioral And Neurochemical Effects Of 6-Hydroxydopamine,” J Neurosci 21, 4427-35 (2001); and Meredith, G. E. & U. J. Kang, “Behavioral Models Of Parkinson's Disease In Rodents: A New Look At An Old Problem,” Mov Disord, 21: 1595-606 (2006).

The subject of series [1] is L-dopa-treated unilateral 6-hydroxydopamine-lesioned rats. Description: L-dopa-induced AIMs (dyskinesia) in unilateral 6-OHDA-lesioned rats. The class given is in vivo, rat. How it is done: The subtype selective NNR agonist Compound A, stimulates […] and to a lesser extent α6* NNRs. […] Experiments were performed using male Sprague-Dawley rats that were unilaterally lesioned with 6-OHDA (Sigma Chemical Co., St. Louis, Mo.) as previously described (Cenci et al., 1998; Cenci et al., 2002). 6-OHDA was dissolved in 0.02% ascorbic acid/saline at a concentration of 3 μg/μl. Compound A was systemically infused via osmotic minipumps (Alzet model 2006; Durect Corporation, Cupertino, Calif., USA), which delivered drug at a rate of 3.6 μl/day for 6 wk. […] Pumps were pre-filled with either sterilized water or Compound A base in water (pH 7.0) to provide the required doses (0.03, 0.1, 0.3 mg/kg/d). The minipumps were subcutaneously implanted along the dorsal aspect of the neck between the shoulder blades, according to the manufacturer's instruction, under isofluorane anesthesia. After implantation, rats were administered buprenorphine (0.02 mg/kg sc) for post-operative pain. Two weeks after initiation of drug treatment, the rats were administered single daily subcutaneous injections of 6 to 8 mg/kg L-dopa methyl ester plus 15 mg/kg benserazide. Two μl aliquots were stereotaxically injected at each of two sites for a total of 8 to 12 μg into the right ascending dopamine fiber bundle. Infusion of 6-OHDA into the target area was over a 2-min period, with the cannula maintained at the site of injection for a further 2 min. Two to three weeks after lesioning, rats were tested for drug-induced rotational behavior in an automated behavioral measurement apparatus (ROTOMAX, AccuScan Instruments Inc. Columbus, Ohio, USA). Each rat was placed in a cylindrical glass chamber for 30 min for acclimatization, after which 4.0 mg/kg amphetamine (Sigma Chemical Co., St. Louis, Mo.) was administered intraperitoneally (ip). Amphetamine-induced rotational behavior was monitored for 90 min, with rats making at least 200 ipsilateral turns/90 min used for further study.
L-dopa-induced AIMs were determined as indicated. See FIG. 1 for experiment dosing and testing regimen. Behavioral testing was done in the morning starting between 9 and 10 AM. Three different AIMs subtypes were measured including (1) axial dystonia, contralateral twisted posturing of the neck and upper body; (2) abnormal orolingual movements, stereotyped jaw movements and contralateral tongue protrusion; and (3) abnormal forelimb movements, repetitive rhythmic jerks or dystonic posturing of the contralateral forelimb and/or grabbing movements of the contralateral paw. See, for example, Carta M, Lindgren HS, Lundblad M, Stancampiano R, Fadda F, Cenci M A (2006), Role of Striatal L-DOPA in the Production of Dyskinesia in 6-hydroxydopamine Lesioned Rats. J Neurochem 96:1718-172; Cenci M A, Lee C S, Bjorklund A (1998) L-DOPA-induced dyskinesia in the rat is associated with striatal overexpression of prodynorphin- and glutamic acid decarboxylase mRNA; Eur J Neurosci 10:2694-2706; Cenci M A, Whishaw I Q, Schallert T (2002) Animal models of neurological deficits: how relevant is the rat? Nat Rev Neurosci 3:574-579; Bordia, T., Campos, C., Huang, L. Z. & Quik, M., “Continuous And Intermittent Nicotine Treatment Reduces L-3,4-Dihydroxyphenylalanine (L-Dopa)-Induced Dyskinesias In A Rat Model Of Parkinson's Disease,” J Pharmacol Exp Ther 327: 239-47 (2008)). Rats were scored on a scale from 0 to 4 for each of these three AIM subtypes as follows: 1=occasional; 2=frequent; 3=continuous but interrupted by sensory distraction; and 4=continuous, severe, not interrupted by sensory distraction. Animals were evaluated for AIMs for an initial 20 min baseline period, as well as for 3 h following L-dopa injection by a blinded rater. Assessment of the different subtypes of AIMs was done over 20 min sessions, thus yielding a total of 9 sessions of testing per animals. The maximum possible score for each animal was thus 108 (maximum score per session=12; number of sessions over 3 h=9). […]

The test system of the next series is primates. Description: Toxicological studies, primates. It counts as in vivo.
In another series the test system is dogs. Description: Toxicological studies, dogs. The class given is in vivo.
The subject of a further series is Parkinsonian rodents. As to conditions: cited from earlier work.
Series [2] has as its system Parkinsonian nonhuman primates. The following applies: cited from earlier work.
Where [3] appears, read: 0.1 or 0.3 mg/kg/d via subcutaneous minipump.

The structures appear in SMILES notation. Entries after “also recorded” stand apart in the source; their conditions may differ.

Take `C(=C\[C@H]1CCNC1)/c1cncnc1` [Compound A, (R)-5-((E)-2-pyrrolidin-3-ylvinyl)pyrimidine]: the “incidence of peripheral side effects” value in the series with rodents, in the series with primates and in the series with dogs was “low incidence of peripheral side effects” each time. Besides, the detrimental effects result with rats (acute free base oral doses up to 30 mg/kg) is “not associated with any significant detrimental effects”. Further, the behavioral sensitization entry with rats (rats) was “no behavioral sensitization”. In the series with rats (rats), the locomotor activity entry is “did not increase locomotor activity”. Besides, in the series on Parkinsonian rats (lesioned rats, either dose tested), the “Parkinsonism / motor function, trend” value is “small trend for improvement; also recorded: trend for improving Parkinsonism”. Besides, the baseline motor function entry with Parkinsonian rats (off L-dopa, either dose tested, across the experiment) was “does not worsen baseline motor function”. Moreover, the “enhanced limb use with L-dopa treatment” value in the series on Parkinsonian rats (on L-dopa, either dose tested, across the experiment) was “nor does it worsen the enhanced limb use”. The “parkinsonism, asymmetric forelimb or cylinder test (FIG. 3)” value in the series with Parkinsonian rats (two doses, Off or On L-dopa, several occasions) was “do not worsen parkinsonism”. The “total AIMs” value in series [1] (0.1 mg/kg/day, second and third assessments) is reported as “significant decline in total AIMs”; in series [1] (0.3 mg/kg/day, fourth assessment) it was “significant decline in total AIMs”; in series [1] (first and fifth AIMs assessments), “trends for declines in total AIMs”. In addition, the “L-dopa-induced AIMs, total or some subset (axial, oral and/or forelimb)” value in series [1] (0.1 and 0.3 mg/kg/day, across multiple assessments, P<0.05 vs control (FIG. 2)) is given as “reduce L-dopa-induced AIMs; also recorded: significant reduction”. Moreover, in series [1] (setting [3]), the “reduction in oral versus axial AIMs” value is reported as “more pronounced reduction in oral than axial AIMs”. Further, the “reduction of total L-dopa-induced AIMs” value in series [1] (setting [3]) is ~25%. The “adverse effects (body weight, body temperature, grooming, urination, defecation, secretion)” value in series [1] (minipump treatment in the AIMs study) is on record as “no detectable adverse effects”.
`CN1CCCC1c1cccnc1` (centres unmarked) [nicotine]: the “reduction of L-dopa-induced dyskinetic-like movements” value (with Parkinsonian rodents (Parkinsonian rodents); in series [2]) was ~50% throughout. Besides, the “L-dopa-induced AIMs” value in the series on Parkinsonian rodents (rats, given continuously via osmotic minipump) is recorded as “most effectively reduced L-dopa-induced AIMs”.
